Reference: the NIST ThermoML archive (doi:10.1007/s10765-011-1052-5)
“And” between values parts separate entries of the source, which are not always exact repeats. Equal entries are not always repeated.

Details: Fluid (supercritical or subcritical phases), Hot wire method

[HH] [hydrogen]
Details | thermal conductivity
323.19 K, 5191 kPa | 0.2032 W/m/K
323.19 K, 5193 kPa | 0.2032 W/m/K
323.19 K, 10094 kPa | 0.2067 W/m/K
323.19 K, 10100 kPa | 0.2065 W/m/K
323.2 K, 261 kPa | 0.1971 W/m/K and 0.197 W/m/K
323.2 K, 266 kPa | 0.1971 W/m/K
323.2 K, 267 kPa | 0.1973 W/m/K
323.2 K, 5186 kPa | 0.2029 W/m/K
323.2 K, 5188 kPa | 0.2031 W/m/K
323.2 K, 5190 kPa | 0.2031 W/m/K
323.2 K, 10084 kPa | 0.2067 W/m/K
323.2 K, 10087 kPa | 0.2067 W/m/K
323.2 K, 10095 kPa | 0.2065 W/m/K
323.2 K, 19987 kPa | 0.2147 W/m/K
323.2 K, 19989 kPa | 0.2142 W/m/K
323.2 K, 19998 kPa | 0.2146 W/m/K
323.2 K, 20000 kPa | 0.2142 W/m/K
323.2 K, 39984 kPa | 0.2311 W/m/K
323.2 K, 39993 kPa | 0.2306 W/m/K
323.2 K, 40006 kPa | 0.2312 W/m/K
323.2 K, 40011 kPa | 0.2304 W/m/K
323.2 K, 40020 kPa | 0.2313 W/m/K
323.2 K, 59948 kPa | 0.2488 W/m/K
323.2 K, 59968 kPa | 0.2483 W/m/K
323.2 K, 59985 kPa | 0.2488 W/m/K
323.2 K, 59986 kPa | 0.2482 W/m/K
323.2 K, 79963 kPa | 0.2659 W/m/K
323.2 K, 79984 kPa | 0.2654 W/m/K
323.2 K, 80001 kPa | 0.2659 W/m/K
323.2 K, 80012 kPa | 0.2648 W/m/K
323.2 K, 80034 kPa | 0.2657 W/m/K
323.2 K, 97707 kPa | 0.2804 W/m/K
323.2 K, 97716 kPa | 0.282 W/m/K
323.2 K, 97745 kPa | 0.2813 W/m/K
323.2 K, 97753 kPa | 0.2816 W/m/K
323.2 K, 97762 kPa | 0.2814 W/m/K
323.21 K, 19980 kPa | 0.2147 W/m/K
323.21 K, 59935 kPa | 0.2488 W/m/K
373.22 K, 598 kPa | 0.2223 W/m/K and 0.2224 W/m/K
373.22 K, 599 kPa | 0.2225 W/m/K
373.22 K, 5170 kPa | 0.2262 W/m/K and 0.226 W/m/K and 0.2261 W/m/K
373.22 K, 70084 kPa | 0.2757 W/m/K and 0.2758 W/m/K
373.22 K, 70086 kPa | 0.2758 W/m/K
373.22 K, 98187 kPa | 0.2983 W/m/K
373.22 K, 98197 kPa | 0.2988 W/m/K
373.23 K, 599 kPa | 0.2224 W/m/K
373.23 K, 4315 kPa | 0.2265 W/m/K
373.23 K, 4316 kPa | 0.2258 W/m/K and 0.2256 W/m/K
373.23 K, 5171 kPa | 0.2262 W/m/K
373.23 K, 10126 kPa | 0.2289 W/m/K
373.23 K, 10127 kPa | 0.2291 W/m/K
373.23 K, 10219 kPa | 0.2296 W/m/K and 0.2295 W/m/K and 0.2298 W/m/K
373.23 K, 30052 kPa | 0.2428 W/m/K and 0.2427 W/m/K
373.23 K, 30053 kPa | 0.2422 W/m/K
373.23 K, 30119 kPa | 0.2438 W/m/K
373.23 K, 30120 kPa | 0.2437 W/m/K and 0.2433 W/m/K
373.23 K, 30122 kPa | 0.2432 W/m/K
373.23 K, 49936 kPa | 0.2599 W/m/K and 0.2582 W/m/K and 0.2587 W/m/K
373.23 K, 50144 kPa | 0.2589 W/m/K and 0.2588 W/m/K
373.23 K, 69997 kPa | 0.2756 W/m/K
373.23 K, 69998 kPa | 0.2753 W/m/K and 0.2751 W/m/K
373.23 K, 97555 kPa | 0.3001 W/m/K
373.23 K, 97558 kPa | 0.2995 W/m/K
373.23 K, 97560 kPa | 0.2989 W/m/K
373.23 K, 98190 kPa | 0.2987 W/m/K
373.23 K, 98193 kPa | 0.2983 W/m/K
373.24 K, 10126 kPa | 0.2296 W/m/K
423.25 K, 5114 kPa | 0.2475 W/m/K
423.25 K, 10105 kPa | 0.2494 W/m/K and 0.2502 W/m/K
423.25 K, 30087 kPa | 0.262 W/m/K and 0.2619 W/m/K and 0.2615 W/m/K
423.25 K, 50102 kPa | 0.2764 W/m/K
423.25 K, 70147 kPa | 0.2939 W/m/K
423.25 K, 70150 kPa | 0.2927 W/m/K
423.25 K, 70155 kPa | 0.2923 W/m/K
423.25 K, 96975 kPa | 0.314 W/m/K
423.25 K, 96978 kPa | 0.3137 W/m/K
423.25 K, 96980 kPa | 0.3142 W/m/K
423.26 K, 403 kPa | 0.2426 W/m/K
423.26 K, 404 kPa | 0.2418 W/m/K
423.26 K, 5113 kPa | 0.2477 W/m/K
423.26 K, 5114 kPa | 0.2476 W/m/K
423.26 K, 10104 kPa | 0.2499 W/m/K
423.26 K, 50100 kPa | 0.2771 W/m/K and 0.2762 W/m/K
423.27 K, 400 kPa | 0.2421 W/m/K
